Experimental findings from ChEMBL document CHEMBL2074405, “Transport of monoamine transmitters by the organic cation transporter type 2, OCT2” (J Biol Chem, 1998) are described below.

Several values for one entry are separate records, joined by “and”; a condition that tells them apart may be missing. Equal entries are not always repeated.

For data set [1], the target named is T1, Solute carrier family 22 member 2 (Rattus norvegicus, UniProt Q9R0W2).
T1 sequence (Q9R0W2 whole entry): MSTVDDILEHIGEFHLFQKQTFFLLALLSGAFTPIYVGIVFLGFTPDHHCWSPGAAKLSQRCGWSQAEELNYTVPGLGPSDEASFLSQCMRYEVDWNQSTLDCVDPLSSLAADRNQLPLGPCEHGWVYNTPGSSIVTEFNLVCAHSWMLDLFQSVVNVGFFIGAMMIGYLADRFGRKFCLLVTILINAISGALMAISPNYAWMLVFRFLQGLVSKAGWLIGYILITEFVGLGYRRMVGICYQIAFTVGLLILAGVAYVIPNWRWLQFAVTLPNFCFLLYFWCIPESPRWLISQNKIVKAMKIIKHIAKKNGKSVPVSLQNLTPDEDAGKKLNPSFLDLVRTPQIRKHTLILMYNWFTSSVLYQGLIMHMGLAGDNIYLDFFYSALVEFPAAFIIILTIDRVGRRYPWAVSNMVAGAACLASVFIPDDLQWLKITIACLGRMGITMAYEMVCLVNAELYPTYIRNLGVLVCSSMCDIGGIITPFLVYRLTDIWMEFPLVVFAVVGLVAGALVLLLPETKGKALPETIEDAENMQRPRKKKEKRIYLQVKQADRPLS
Description: TP_TRANSPORTER: inhibition of Dopamine uptake (Dopamine: 0.1 uM, O-Methylisoprenaline: 30 uM) in OCT2-expressing HEK293 cells. In kind it is functional, cell-based. The settings on record: human, hek293, 30 µM.

Data set [2] addresses T1, Solute carrier family 22 member 2. Put plainly: TP_TRANSPORTER: inhibition of Dopamine uptake (Dopamine: 0.1 uM, Cocaine: 1 uM) in OCT2-expressing HEK293 cells. In kind it is functional, cell-based. To be noted: human, hek293, 1 µM.
Data set [3] has the same target. Description: TP_TRANSPORTER: inhibition of Serotonin uptake in OCT2-expressing HEK293 cells. Type of data set: functional, cell-based.
The target is the same in data set [4]. Description: TP_TRANSPORTER: inhibition of Noradrenaline uptake in OCT2-expressing HEK293 cells. Type of data set: functional, cell-based.
Data set [5] shares this target. Put plainly: TP_TRANSPORTER: inhibition of Dopamine uptake in OCT2-expressing HEK293 cells. Type of data set: functional, cell-based.
For data set [6] the target is unchanged. Description: TP_TRANSPORTER: inhibition of Adrenaline uptake in OCT2-expressing HEK293 cells. In kind it is functional, cell-based.
Substrate in data set [7]: CNC[C@H](O)c1ccc(O)c(O)c1
Put plainly: cells, lysate or membranes named.

Substrate in data set [8]: NCCc1c[nH]c2ccc(O)cc12
Put plainly: cells, lysate or membranes named.
Description: (§1) TP_TRANSPORTER: uptake in OCT2-expressing HEK293 cells

Substrate in data set [9]: NCCc1ccc(O)c(O)c1
Put plainly: cells, lysate or membranes named.

Substrate in data set [10]: NC[C@H](O)c1ccc(O)c(O)c1
Description: cells, lysate or membranes named.
Description: as §1

`COc1cc(C(O)CNC(C)C)ccc1O` (centres undefined) [METIPRENALINE]: in data set [1], the Activity result was “is not an inhibitor [-]”.

On to `COC(=O)[C@H]1[C@@H](OC(=O)c2ccccc2)C[C@@H]2CC[C@H]1N2C` [COCAINE], for which, in data set [2], the Activity result is “is not an inhibitor [-]”.

For `CC(C)N1/C(=C\c2cc[n+](C(C)C)c3ccccc23)C=Cc2ccccc21` [DISPROCYNIUM24], the Ki (usually a dissociation constant, usually derived from enzyme kinetics or from competition with a known ligand) in data set [3] was 13 nM; in data set [4] it was 13 nM; in [5], 5.1 nM; in [6] it was 12 nM.

Consider `C[C@]12C[C@H](O)[C@H]3[C@@H](CCC4=CC(=O)CC[C@@]43C)[C@@H]1CC[C@@H]2C(=O)CO` [CORTICOSTERONE], for which the Ki is 605 nM in data set [3], 460 nM in data set [4], 390 nM in [5] and 420 nM in data set [6].

B1: Solute carrier family 22 member 2 (Rattus norvegicus) (protein)
chain: MSTVDDILEHIGEFHLFQKQTFFLLALLSGAFTPIYVGIVFLGFTPDHHCWSPGAAKLSQRCGWSQAEELNYTVPGLGPSDEASFLSQCMRYEVDWNQSTLDCVDPLSSLAADRNQLPLGPCEHGWVYNTPGSSIVTEFNLVCAHSWMLDLFQSVVNVGFFIGAMMIGYLADRFGRKFCLLVTILINAISGALMAISPNYAWMLVFRFLQGLVSKAGWLIGYILITEFVGLGYRRMVGICYQIAFTVGLLILAGVAYVIPNWRWLQFAVTLPNFCFLLYFWCIPESPRWLISQNKIVKAMKIIKHIAKKNGKSVPVSLQNLTPDEDAGKKLNPSFLDLVRTPQIRKHTLILMYNWFTSSVLYQGLIMHMGLAGDNIYLDFFYSALVEFPAAFIIILTIDRVGRRYPWAVSNMVAGAACLASVFIPDDLQWLKITIACLGRMGITMAYEMVCLVNAELYPTYIRNLGVLVCSSMCDIGGIITPFLVYRLTDIWMEFPLVVFAVVGLVAGALVLLLPETKGKALPETIEDAENMQRPRKKKEKRIYLQVKQADRPLS
As for B1, the Km (commonly the concentration of substrate that gives half-maximal velocity) is 1900 µM in data set [7]; 3.6 mM in [8]; 2100 µM in data set [9]; 11 mM and 4.4 mM in data set [10].
